{"source": "PubChem BioAssay (NCI)", "experiment_in_all_cases": "DTP human tumour cell line panel, 48 h", "key": {"HOP-62 NSCLC": {"tested_on": "HOP-62 NSCLC"}, "HT29 colon": {"tested_on": "HT29 colon"}, "IGROV1 ovarian": {"tested_on": "IGROV1 ovarian"}, "MCF7 breast": {"tested_on": "MCF7 breast"}, "NCI-H226 lung": {"tested_on": "NCI-H226 lung"}, "OVCAR-4 ovarian": {"tested_on": "OVCAR-4 ovarian"}, "SN12C renal": {"tested_on": "SN12C renal"}, "SR leukemia": {"tested_on": "SR leukemia"}, "T-47D breast": {"tested_on": "T-47D breast"}, "SNB-19 CNS": {"tested_on": "SNB-19 CNS"}}, "note": "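Test compounds were applied to cells in 96-well plates for 48 hours at 5 doses. GI50 = concentration required for 50% inhibition of growth. Definition used: TGI = concentration required for complete inhibition of growth.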"}
{"smiles": "O=c1oc2cc(O)ccc2c(O)c1C(c1ccccc1)c1c(O)c2ccc(O)cc2oc1=O", "values": [{"measurement": "TGI", "setting": "HOP-62 NSCLC", "result": "> 100", "unit": "µM"}, {"measurement": "TGI", "setting": "HT29 colon", "result": "> 100", "unit": "µM"}, {"measurement": "TGI", "setting": "IGROV1 ovarian", "result": "> 100", "unit": "µM"}, {"measurement": "TGI", "setting": "MCF7 breast", "result": "> 100", "unit": "µM"}, {"measurement": "TGI", "setting": "NCI-H226 lung", "result": "> 100", "unit": "µM"}, {"measurement": "TGI", "setting": "OVCAR-4 ovarian", "result": "> 100", "unit": "µM"}, {"measurement": "TGI", "setting": "SN12C renal", "result": "> 100", "unit": "µM"}, {"measurement": "TGI", "setting": "SR leukemia", "result": "> 100", "unit": "µM"}, {"measurement": "TGI", "setting": "T-47D breast", "result": "> 100", "unit": "µM"}]}
{"smiles": "O=C1CC2(CCC(O)(c3ccc4ccccc4c3)C(C(=O)c3ccc4ccccc4c3)C2)C(=O)c2ccccc2N1", "note": "(stereo not drawn)", "values": [{"measurement": "TGI", "setting": "HOP-62 NSCLC", "result": "> 100", "unit": "µM"}, {"measurement": "TGI", "setting": "HT29 colon", "result": "> 100", "unit": "µM"}, {"measurement": "TGI", "setting": "IGROV1 ovarian", "result": "> 100", "unit": "µM"}, {"measurement": "TGI", "setting": "MCF7 breast", "result": "> 100", "unit": "µM"}, {"measurement": "TGI", "setting": "NCI-H226 lung", "result": "> 100", "unit": "µM"}, {"measurement": "TGI", "setting": "SN12C renal", "result": "> 100", "unit": "µM"}, {"measurement": "TGI", "setting": "SNB-19 CNS", "result": "> 100", "unit": "µM"}, {"measurement": "TGI", "setting": "SR leukemia", "result": "> 100", "unit": "µM"}, {"measurement": "TGI", "setting": "T-47D breast", "result": "> 100", "unit": "µM"}]}
{"smiles": "COc1cnc2c(c1)C(=O)c1c-2n(CCCN2CCOCC2)c(=O)c2cc(Cl)ccc12", "values": [{"measurement": "GI50", "setting": "HOP-62 NSCLC", "result": 0.274, "unit": "µM"}, {"measurement": "TGI", "setting": "HOP-62 NSCLC", "result": 22.4, "unit": "µM"}, {"measurement": "GI50", "setting": "HT29 colon", "result": 0.233, "unit": "µM"}, {"measurement": "TGI", "setting": "HT29 colon", "result": "> 100", "unit": "µM"}, {"measurement": "GI50", "setting": "MCF7 breast", "result": 0.0959, "unit": "µM"}, {"measurement": "TGI", "setting": "MCF7 breast", "result": "> 100", "unit": "µM"}, {"measurement": "GI50", "setting": "NCI-H226 lung", "result": 0.396, "unit": "µM"}, {"measurement": "TGI", "setting": "NCI-H226 lung", "result": "> 100", "unit": "µM"}, {"measurement": "GI50", "setting": "OVCAR-4 ovarian", "result": "> 100", "unit": "µM"}, {"measurement": "TGI", "setting": "OVCAR-4 ovarian", "result": "> 100", "unit": "µM"}, {"measurement": "GI50", "setting": "SNB-19 CNS", "result": 0.31, "unit": "µM"}, {"measurement": "TGI", "setting": "SNB-19 CNS", "result": "> 100", "unit": "µM"}, {"measurement": "GI50", "setting": "SR leukemia", "result": 0.0797, "unit": "µM"}, {"measurement": "TGI", "setting": "SR leukemia", "result": "> 100", "unit": "µM"}]}
{"smiles": "O=C1CCC(c2ccccc2)=NN1c1nsc2ccccc12", "values": [{"measurement": "TGI", "setting": "HOP-62 NSCLC", "result": "> 100", "unit": "µM"}, {"measurement": "TGI", "setting": "HT29 colon", "result": "> 100", "unit": "µM"}, {"measurement": "TGI", "setting": "IGROV1 ovarian", "result": "> 100", "unit": "µM"}, {"measurement": "TGI", "setting": "OVCAR-4 ovarian", "result": "> 100", "unit": "µM"}, {"measurement": "TGI", "setting": "SN12C renal", "result": "> 100", "unit": "µM"}, {"measurement": "TGI", "setting": "SNB-19 CNS", "result": "> 100", "unit": "µM"}, {"measurement": "TGI", "setting": "SR leukemia", "result": "> 100", "unit": "µM"}]}
{"smiles": "Nc1ncc(-c2ccc3ncnc(Nc4ccc(F)c(Cl)c4)c3c2)cn1", "values": [{"measurement": "GI50", "setting": "HOP-62 NSCLC", "result": 1.7, "unit": "µM"}, {"measurement": "TGI", "setting": "HOP-62 NSCLC", "result": 4.45, "unit": "µM"}, {"measurement": "GI50", "setting": "HT29 colon", "result": 2.31, "unit": "µM"}, {"measurement": "TGI", "setting": "HT29 colon", "result": 19.3, "unit": "µM"}, {"measurement": "GI50", "setting": "IGROV1 ovarian", "result": 0.258, "unit": "µM"}, {"measurement": "TGI", "setting": "IGROV1 ovarian", "result": 2.43, "unit": "µM"}, {"measurement": "GI50", "setting": "MCF7 breast", "result": 1.49, "unit": "µM"}, {"measurement": "TGI", "setting": "MCF7 breast", "result": 20.5, "unit": "µM"}, {"measurement": "GI50", "setting": "NCI-H226 lung", "result": 2.07, "unit": "µM"}, {"measurement": "TGI", "setting": "NCI-H226 lung", "result": 4.67, "unit": "µM"}, {"measurement": "GI50", "setting": "OVCAR-4 ovarian", "result": 1.32, "unit": "µM"}, {"measurement": "TGI", "setting": "OVCAR-4 ovarian", "result": 2.97, "unit": "µM"}, {"measurement": "GI50", "setting": "SN12C renal", "result": 1.58, "unit": "µM"}, {"measurement": "TGI", "setting": "SN12C renal", "result": 4.1, "unit": "µM"}, {"measurement": "GI50", "setting": "SNB-19 CNS", "result": 3.53, "unit": "µM"}, {"measurement": "TGI", "setting": "SNB-19 CNS", "result": 23.5, "unit": "µM"}, {"measurement": "GI50", "setting": "T-47D breast", "result": 0.703, "unit": "µM"}, {"measurement": "TGI", "setting": "T-47D breast", "result": 3.16, "unit": "µM"}]}
{"smiles": "O=C(O)C(Cl)(Cl)Cl", "values": [{"measurement": "TGI", "setting": "IGROV1 ovarian", "result": "> 100", "unit": "µM"}, {"measurement": "TGI", "setting": "NCI-H226 lung", "result": "> 100", "unit": "µM"}, {"measurement": "TGI", "setting": "OVCAR-4 ovarian", "result": "> 100", "unit": "µM"}, {"measurement": "TGI", "setting": "SN12C renal", "result": "> 100", "unit": "µM"}, {"measurement": "TGI", "setting": "SNB-19 CNS", "result": "> 100", "unit": "µM"}, {"measurement": "TGI", "setting": "SR leukemia", "result": "> 100", "unit": "µM"}]}
